We go through one compound from patent publication US20110034420A1, “NOVEL CRYSTALLINE FORM B OF (2R)-(3-AMINO-2-FLUOROPROPYL)PHOSPHINIC ACID” (priority 2008, published 2011).

The nature of the series: isoelectric point of the zwitterion. Format: physicochemical. As to conditions: pH at which it may be crystallised. An excerpt:
(2R)-(3-amino-2-fluoropropyl)phosphinic acid is a zwitterion, that may be crystallised at the isoelectric point, in this case approximately at a pH of 5.3.

For `NC[C@@H](F)C[PH](=O)O` [(2R)-(3-amino-2-fluoropropyl)phosphinic acid], the “isoelectric point (pH)” value was about 5.3 pH.
